Earlier results in patent US20230059204A1, “T[…]-DOSING […] OF PHARMACEUTICAL AGENTS” (PIKE THERAPEUTICS, INC., priority 2021, published 2023).

Test system: serotonin receptors in the brain
Details: once ingested

CN(C)CCc1c[nH]c2cccc(OP(=O)(O)O)c12 [psilocybin, [3-(2-dimethylaminoethyl)-1H-indol-4-yl] dihydrogen phosphate]
duration of mind-altering effects: two to six
